Reference: PMC6616483, “Non-Pungent n-3 Polyunsaturated Fatty Acid (PUFA)-Derived Capsaicin Analogues as Potential Functional Ingredients with Antioxidant and Carbohydrate-Hydrolysing Enzyme Inhibitory Activities” (Antioxidants, 2019)
Values joined by “and” are separate entries in the source; they are usually repeats but may differ in a detail not shown here. Equal entries are not always repeated. Where two headings read alike, the source gives them in different places. One block for each molecule: values may come before it.

Experiments:
type 1 diabetic rats = tested on: type 1 diabetic rats; set-up: method as in PMID 28230360; details: orally 6 mg/Kg for 28 days; cited from earlier work
[1] = Ferric reducing ability power (FRAP) test; details: means ± S.D. (n = 3)
Procedure: The FRAP test was performed following the protocol previously described. Absorbance was measured using a UV-Vis spectrophotometer (model V-550, Jasco, Milan, Italy) at 470 nm. FRAP value was expressed as mM Fe(II)/g. Butylated hydroxytoluene (BHT) was used as a positive control.

α-glucosidase = test: α-Glucosidase inhibitory assay; format: biochemical; details: for Ki: calculated following the Cheng–Prusoff equation; for IC50 / α-Glucosidase IC50: means ± S.D. (n = 3)
Procedure: The α-glucosidase inhibitory assay was achieved following the procedure previously described. Absorbance was measured at 500 nm using a UV-Vis spectrophotometer (model V-550, Jasco, Milan, Italy). […] Ki value was calculated as previously described.

α-amylase = molecular target: T1, α-amylase (Sus scrofa, UniProt P00690); test: α-Amylase inhibitory assay; format: biochemical; details: means ± S.D. (n = 3)
T1 sequence (P00690 16-511): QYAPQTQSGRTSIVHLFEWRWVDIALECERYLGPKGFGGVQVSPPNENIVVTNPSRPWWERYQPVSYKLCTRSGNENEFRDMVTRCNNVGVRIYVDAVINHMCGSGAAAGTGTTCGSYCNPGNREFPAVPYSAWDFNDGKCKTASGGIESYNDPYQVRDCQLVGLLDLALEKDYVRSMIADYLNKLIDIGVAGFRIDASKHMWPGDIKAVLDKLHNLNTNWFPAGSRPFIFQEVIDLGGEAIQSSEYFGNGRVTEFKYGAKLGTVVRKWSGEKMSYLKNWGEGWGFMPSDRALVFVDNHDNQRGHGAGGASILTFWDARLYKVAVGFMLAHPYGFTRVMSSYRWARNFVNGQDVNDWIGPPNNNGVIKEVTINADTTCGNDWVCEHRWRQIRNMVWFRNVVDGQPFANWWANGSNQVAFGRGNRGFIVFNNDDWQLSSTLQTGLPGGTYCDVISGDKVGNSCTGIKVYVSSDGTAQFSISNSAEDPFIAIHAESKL
Procedure: The α-amylase inhibition assay was accomplished as previously described. Absorbance was measured at 540 nm using a UV-Vis spectrophotometer (model V-550, Jasco, Milan, Italy). […] Ki values were calculated following the Cheng–Prusoff equation [18].

β-cells = tested on: β-cells; set-up: method as in PMID 31022842; details: cited from earlier work
[2] = β-Carotene bleaching test
Procedure: The β-carotene bleaching test was performed as previously described. The absorbance of the samples, standard, and control was measured using a UV-Vis spectrophotometer (model V-550, Jasco, Milan, Italy) at 470 nm against a blank at t = 0 and successively at 30 and 60 min. Propyl gallate was used as positive control.

ABTS assay = details: means ± S.D. (n = 3); NA: not active at maximum concentration tested; read-out: ABTS Test IC50
Procedure: The ABTS assay was performed according to a previously reported protocol. Absorbance was measured at 734 nm using a UV-Vis spectrophotometer (model V-550, Jasco, Milan, Italy) Ascorbic acid was used as positive control.

[3] = DPPH free radical scavenging assay; details: means ± S.D. (n = 3); NA: not active at maximum concentration tested; read-out: DPPH Test IC50
Procedure: The DPPH assay was performed according to a previously reported protocol. Absorbance was measured at 517 nm using a UV-Vis spectrophotometer (model V-550, Jasco, Milan, Italy). Ascorbic acid was used as positive control.

healthy human subjects = tested on: healthy human subjects; set-up: method as in PMID 16612838; details: oral administration; cited from earlier work
[4] = read-out: β-Carotene Bleaching Test IC50 30 min, 30 min of incubation
[5] = read-out: β-Carotene Bleaching Test IC50 60 min, 60 min of incubation

SMILES: COc1cc(COC(=O)CCCC/C=C/C(C)C)ccc1O [capsiate]
intestinal glucose absorption (type 1 diabetic rats): inhibited intestinal glucose absorption

SMILES: Cc1cc(C(C)(C)C)c(O)c(C(C)(C)C)c1 [BHT, Butylated hydroxytoluene]
FRAP Test [1]: 63 ± 4 μM Fe(II)/g

SMILES: CC/C=C\C/C=C\C/C=C\C/C=C\C/C=C\CCCC(=O)O [EPA, eicosapentaenoic acid]
Ki (α-glucosidase): 10 µM | IC50 (α-glucosidase): 250 ± 9 µM | α-Glucosidase IC50 (α-glucosidase): No significant carbohydrate-hydrolysing enzymes inhibition | α-Amylase IC50 (α-amylase): No significant carbohydrate-hydrolysing enzymes inhibition | release of insulin compared to the control (β-cells; 15 min of incubation): ineffective | release of insulin compared to the control (β-cells; 120 min of incubation): ineffective | FRAP Test [1]: 4.8 ± 0.8 μM Fe(II)/g | IC50 [2, 4]: 74 ± 5 µM | IC50 [2, 5]: 310 ± 10 µM

SMILES: COc1cc(CNC(=O)CCCC/C=C/C(C)C)ccc1O [Capsaicin, capsaicin]
IC50 (ABTS assay): 0.3 µM | IC50 [3]: 0.6 µM | plasma insulin concentrations after glucose loading (healthy human subjects): did not significantly differ from the control group | Ki (α-glucosidase): 1 µM | IC50 (α-glucosidase): 13 ± 1 µM | release of insulin compared to the control (β-cells; 15 min of incubation): ineffective | release of insulin compared to the control (β-cells; 120 min of incubation): ineffective | FRAP Test [1]: 30 ± 3 μM Fe(II)/g | intestinal glucose absorption (type 1 diabetic rats): inhibited intestinal glucose absorption | IC50 [2, 4]: 10 ± 1 µM | IC50 [2, 5]: 11 ± 1 µM

IC50 [2, 4]: 0.4 µM | IC50 [2, 5]: 0.4 µM
SMILES: CCCOC(=O)c1cc(O)c(O)c(O)c1 [Propyl gallate]

SMILES: CC/C=C\C/C=C\C/C=C\C/C=C\C/C=C\CCCC(=O)NCc1ccc(O)c(OC)c1 [EPVA, N-eicosapentaenoyl vanillylamine]
IC50 (ABTS assay): 0.2 µM | IC50 [3]: 1 µM | Ki (α-glucosidase): 2 µM | IC50 (α-glucosidase): 23.6 µM and 24 µM | release of insulin compared to the control (β-cells; 15 min of incubation): significant increase | release of insulin compared to the control (β-cells; 120 min of incubation): significant increase | FRAP Test [1]: 28 ± 2 μM Fe(II)/g | IC50 [2, 4]: 9 ± 1 µM | IC50 [2, 5]: 11 ± 1 µM

IC50 (ABTS assay): 0.3 µM | IC50 [3]: 0.8 µM | Ki (α-glucosidase): 2 µM | IC50 (α-glucosidase): 23.9 µM and 24 µM | IC50 [2, 4]: 46 ± 3 µM | IC50 [2, 5]: 56 ± 3 µM
SMILES: CC/C=C\C/C=C\C/C=C\C/C=C\C/C=C\C/C=C\CCC(=O)NCc1ccc(O)c(OC)c1 [DHVA, N-docosahexaenoyl vanillylamine]
release of insulin compared to the control (β-cells; 15 min of incubation): ineffective | release of insulin compared to the control (β-cells; 120 min of incubation): slight decrease | FRAP Test [1]: 18 ± 2 μM Fe(II)/g

IC50 (ABTS assay): 9.6 ± 0.9 µM | IC50 [3]: 23 ± 2 µM
SMILES: O=C1O[C@H]([C@@H](O)CO)C(O)=C1O [Ascorbic acid]

SMILES: CC/C=C\C/C=C\C/C=C\C/C=C\C/C=C\C/C=C\CCC(=O)O [DHA, docosahexaenoic acid]
Ki (α-glucosidase): 10 µM | IC50 (α-glucosidase): 268 ± 9 µM | α-Glucosidase IC50 (α-glucosidase): No significant carbohydrate-hydrolysing enzymes inhibition | α-Amylase IC50 (α-amylase): No significant carbohydrate-hydrolysing enzymes inhibition | release of insulin compared to the control (β-cells; 15 min of incubation): ineffective | release of insulin compared to the control (β-cells; 120 min of incubation): ineffective | FRAP Test [1]: 9 ± 1 μM Fe(II)/g | IC50 [2, 4]: 70 ± 4 µM | IC50 [2, 5]: 287 ± 10 µM
